In patent US12077503B2, “Substituted cyclic amides and their use as herbicides” (FMC CORPORATION, priority 2015, dated 2024):

Experiments:
Format in all cases: in vivo
[1] = system: ducksalad (Heteranthera limosa); assay: Test B flooded paddy test; conditions: Heteranthera limosa, Flood, 250 g ai/ha; scale of 0 to 100 where 0 is no effect and 100 is complete control; read-out: Ducksalad plant response rating
Outline: (§1)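 Greenhouse paddy pots with 2-leaf stage plants received compound by direct addition to floodwater 3 cm deep, kept at that level. Scored visually at 13–15 d versus controls (0 no effect; 100 complete control).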

[2] = system: sedge, umbrella (small-flower umbrella sedge, Cyperus difformis); assay: Test B flooded paddy test; conditions: Cyperus difformis, Flood, 250 g ai/ha; scale of 0 to 100 where 0 is no effect and 100 is complete control; read-out: Sedge, Umbrella plant response rating
Outline: as §1

rice (Oryra sativa) = assay: Test B flooded paddy test; conditions: Oryza sativa, Flood, 250 g ai/ha; scale of 0 to 100 where 0 is no effect and 100 is complete control; read-out: Rice plant response rating
Outline: as §1

[3] = system: barnyardgrass (Echinochloa crus-galli); assay: Test B flooded paddy test; conditions: Echinochloa crus-galli, Flood, 250 g ai/ha; scale of 0 to 100 where 0 is no effect and 100 is complete control; read-out: Barnyardgrass plant response rating
Outline: as §1

[4] = system: ragweed (common ragweed, Ambrosia elatior); assay: Test A preemergence; conditions: Ambrosia artemisiifolia, pre-emergence, 240 h; for pest or weed control at 125 g/ha: 125 g ai/ha, preemergence, 0 to 100 scale where 0 is no effect and 100 is complete control, read-out: Ragweed plant response rating; for pest or weed control at 500 g/ha: 500 g ai/ha, Preemergence, visual injury vs untreated controls after approximately 10 d, read-out: Ragweed plant response rating (0 to 100 scale where 0 is no effect and 100 is complete control)
Outline: (§2)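 Seeded soil received test chemicals as a preemergence directed spray, and seedlings at one to two leaves, 2–10 cm tall, received them postemergence, in a non-phytotoxic, surfactant-containing solvent mixture. Pots were held in a greenhouse for approximately 10 d, then rated for injury from 0, no effect, to 100, complete control.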

Kochia (Kochia scoparia) [5] = assay: Test A preemergence; conditions: Bassia scoparia, pre-emergence, 240 h; for pest or weed control at 125 g/ha: 125 g ai/ha, preemergence, 0 to 100 scale where 0 is no effect and 100 is complete control, read-out: Kochia plant response rating; for pest or weed control at 500 g/ha: 500 g ai/ha, Preemergence, visual injury vs untreated controls after approximately 10 d, read-out: Kochia plant response rating (0 to 100 scale where 0 is no effect and 100 is complete control)
Outline: as §2

[6] = system: pigweed (Amaranthus retroflexus); assay: Test A preemergence; conditions: Amaranthus retroflexus, pre-emergence, 240 h; for pest or weed control at 125 g/ha: 125 g ai/ha, preemergence, 0 to 100 scale where 0 is no effect and 100 is complete control, read-out: Pigweed plant response rating; for pest or weed control at 500 g/ha: 500 g ai/ha, Preemergence, visual injury vs untreated controls after approximately 10 d, read-out: Pigweed plant response rating (0 to 100 scale where 0 is no effect and 100 is complete control)
[7] = system: ryegrass, Italian (Italian ryegrass, Lolium multiflorum); assay: Test A preemergence; conditions: Lolium multiflorum, pre-emergence, 240 h; for pest or weed control at 125 g/ha: 125 g ai/ha, preemergence, 0 to 100 scale where 0 is no effect and 100 is complete control, read-out: Ryegrass, Italian plant response rating; for pest or weed control at 500 g/ha: 500 g ai/ha, Preemergence, visual injury vs untreated controls after approximately 10 d, read-out: Ryegrass, Italian plant response rating (0 to 100 scale where 0 is no effect and 100 is complete control)
Outline: as §2

[8] = system: barnyardgrass (Echinochloa crus-galli); assay: Test A preemergence; conditions: Echinochloa crus-galli, pre-emergence, 240 h; for pest or weed control at 125 g/ha: 125 g ai/ha, preemergence, 0 to 100 scale where 0 is no effect and 100 is complete control, read-out: Barnyardgrass plant response rating; for pest or weed control at 500 g/ha: 500 g ai/ha, Preemergence, visual injury vs untreated controls after approximately 10 d, read-out: Barnyardgrass plant response rating (0 to 100 scale where 0 is no effect and 100 is complete control)
Outline: as §2

[9] = system: giant foxtail (Setaria faberii); assay: Test A preemergence; conditions: Setaria faberi, pre-emergence, 240 h; for pest or weed control at 125 g/ha: 125 g ai/ha, preemergence, 0 to 100 scale where 0 is no effect and 100 is complete control, read-out: Foxtail, Giant plant response rating; for pest or weed control at 500 g/ha: 500 g ai/ha, Preemergence, visual injury vs untreated controls after approximately 10 d, read-out: Foxtail, Giant plant response rating (0 to 100 scale where 0 is no effect and 100 is complete control)
Outline: as §2

[10] = system: ragweed (common ragweed, Ambrosia elatior); assay: Test A postemergence; conditions: Ambrosia artemisiifolia, post-emergence, 240 h, 125 g ai/ha, postemergence, visual injury rating after approximately 10 d; read-out: Ragweed plant response rating (0 to 100 scale, 0 no effect, 100 complete control)
Outline: as §2

Kochia (Kochia scoparia) [11] = assay: Test A postemergence; conditions: Bassia scoparia, post-emergence, 240 h, 125 g ai/ha, postemergence, visual injury rating after approximately 10 d; read-out: Kochia plant response rating (0 to 100 scale, 0 no effect, 100 complete control)
Outline: as §2

[12] = system: barnyardgrass (Echinochloa crus-galli); assay: Test A postemergence; conditions: Echinochloa crus-galli, post-emergence, 240 h, 125 g ai/ha, postemergence, visual injury rating after approximately 10 d; read-out: Barnyardgrass plant response rating (0 to 100 scale, 0 no effect, 100 complete control)
Outline: as §2

[13] = system: giant foxtail (Setaria faberii); assay: Test A postemergence; conditions: Setaria faberi, post-emergence, 240 h, 125 g ai/ha, postemergence, visual injury rating after approximately 10 d; read-out: Foxtail, Giant plant response rating (0 to 100 scale, 0 no effect, 100 complete control)
Outline: as §2

Row | SMILES | pest or weed control at 250 g/ha [1] [%] | pest or weed control at 250 g/ha [2] [%] | pest or weed control at 250 g/ha (rice (Oryra sativa)) [%] | pest or weed control at 250 g/ha [3] [%] | pest or weed control at 125 g/ha [4] [%] | pest or weed control at 500 g/ha [4] [%] | pest or weed control at 125 g/ha (Kochia (Kochia scoparia) [5]) [%] | pest or weed control at 500 g/ha (Kochia (Kochia scoparia) [5]) [%] | pest or weed control at 125 g/ha [6] [%] | pest or weed control at 500 g/ha [6] [%] | pest or weed control at 125 g/ha [7] [%] | pest or weed control at 500 g/ha [7] [%] | pest or weed control at 125 g/ha [8] [%] | pest or weed control at 500 g/ha [8] [%] | pest or weed control at 125 g/ha [9] [%] | pest or weed control at 500 g/ha [9] [%] | pest or weed control at 125 g/ha [10] [%] | pest or weed control at 125 g/ha (Kochia (Kochia scoparia) [11]) [%] | pest or weed control at 125 g/ha [12] [%] | pest or weed control at 125 g/ha [13] [%]
1 | CN1C[C@H](c2cccc(F)c2)[C@@H](C(=O)Nc2ccccc2S(C)(=O)=O)C1=O [Compound 824] | 95 | 0 | 0 | 65 | 20 | 50 | 60 | 70 | 0 | 40 | 20 | 40 | 90 | 100 | 90 | 100 | 30 | 0 | 90 | 90
2 | O=C1NC[C@H](c2cccc(C(F)(F)F)c2)[C@H]1C(=O)Nc1cccc2c1OC(F)(F)O2 [Compound 827] | 75 | 0 | 0 | 30 | 0 | 20 | 30 | 60 | 20 | 40 | 30 | 70 | 90 | 90 | 90 | 90 | 0 | 0 | 70 | 80
3 | Cc1c(F)ccc([C@H]2CNC(=O)[C@@H]2C(=O)Nc2ccc(F)c(F)c2F)c1F [Compound 830] | 100 | 0 | 0 | 20 | 0 | 20 | 70 | 90 | 20 | 40 | 0 | 30 | 90 | 90 | 90 | 90 | 0 | 30 | 90 | 70
4 | Cc1c(F)ccc([C@H]2CNC(=O)[C@@H]2C(=O)Nc2ccccc2C(F)(F)F)c1F [Compound 831] | 70 | 0 | 0 | 0 | 0 | 0 | 0 | 0 | 20 | 20 | 30 | 50 | 50 | 70 | 90 | 90 | 0 | 0 | 30 | 20
5 | Cc1c(F)ccc([C@H]2CNC(=O)[C@@H]2C(=O)Nc2ccccc2S(C)(=O)=O)c1F [Compound 832] | 100 | 0 | 15 | 0 | 40 | 60 | 90 | 100 | 0 | 30 | 0 | 30 | 40 | 80 | 0 | 80 | 20 | 20 | 70 | 0
6 | Cc1c(F)ccc([C@H]2CN(C)C(=O)[C@@H]2C(=O)Nc2cccc(F)c2F)c1F [Compound 834] | 65 | 0 | 0 | 60 | 0 | 20 | 80 | 90 | 0 | 30 | 70 | 80 | 90 | 90 | 90 | 100 | 0 | 40 | 90 | 90
7 | Cc1c(F)ccc([C@H]2CN(C)C(=O)[C@@H]2C(=O)Nc2ccc(F)cc2F)c1F [Compound 835] | 70 | 0 | 20 | 50 | 0 | 0 | 80 | 90 | 20 | 40 | 30 | 70 | 90 | 100 | 90 | 100 | 0 | 0 | 90 | 90
